Source: ChEMBL document CHEMBL1212865, “New porphyrin amino acid conjugates: synthesis and photodynamic effect in human epithelial cells” (Bioorg Med Chem, 2010)
Calls of active or inactive are those of the source. The rule behind the calls is not given here.

Legend:
[1] = system: HaCaT; experiment: Phototoxicity against human HaCaT cells assessed as surviving fraction at 2.4 uM under LED array light; format: functional
[2] = system: HeLa; experiment: Phototoxicity against human HeLa cells assessed as surviving fraction at 12 uM under LED array light by MTT assay; format: functional
[3] = system: HaCaT; experiment: Induction of apoptosis in human HaCaT cells assessed as intracellular localization at 1.2 uM with 9.15 mW/cm'2 light for; format: functional, cell-based; details: TDE = time-dependent effect
[4] = system: HeLa; experiment: Phototoxicity against human HeLa cells assessed as surviving fraction at 2.4 uM under LED array light; format: functional
[5] = Induction of singlet oxygen production at 1 uM after irradiation at 10 mW/cm'2 in presence of 1,3-diphenylisobenzofuran; format: physicochemical
[6] = system: HaCaT; experiment: Phototoxicity against human HaCaT cells assessed as surviving fraction at 1.2 uM under LED array light; format: functional
[7] = system: HeLa; experiment: Phototoxicity against human HeLa cells assessed as surviving fraction at 1.2 uM under LED array light; format: functional
[8] = system: HaCaT; experiment: Phototoxicity against human HaCaT cells assessed as surviving fraction at 1.2 uM irradiated with 9.15 mW/cm'2 light for 10 mins by MTT assay; format: functional
[9] = system: HaCaT; experiment: Phototoxicity against human HaCaT cells assessed as surviving fraction at 12 uM under LED array light; format: functional
[10] = system: HaCaT; experiment: Phototoxicity against human HaCaT cells assessed as surviving fraction at 0.61 uM under LED array light by MTT assay; format: functional
[11] = system: HeLa; experiment: Phototoxicity against human HeLa cells assessed as surviving fraction at 0.22 uM under LED array light; format: functional
[12] = system: HaCaT; experiment: Phototoxicity against human HaCaT cells assessed as surviving fraction at 0.22 uM under LED array light by MTT assay; format: functional
[13] = system: HeLa; experiment: Phototoxicity against human HeLa cells assessed as surviving fraction at 1.2 uM irradiated with 9.15 mW/cm'2 light for 10 mins by MTT assay; format: functional
[14] = system: HeLa; experiment: Phototoxicity against human HeLa cells assessed as survival at 1.2 uM irradiated with 9.15 mW/cm'2 light for 10 mins by MTT assay
[15] = system: HeLa; experiment: Phototoxicity against human HeLa cells assessed as surviving fraction at 1.2 uM irradiated with 9.15 mW/cm'2 light for 20 mins by MTT assay; format: functional
[16] = system: HeLa; experiment: Phototoxicity against human HeLa cells assessed as surviving fraction at 0.61 uM under LED array light; format: functional
[17] = system: HeLa; experiment: Phototoxicity against human HeLa cells assessed as surviving fraction at 1.2 uM irradiated with 9.15 mW/cm'2 light for 5 mins by MTT assay; format: functional
[18] = system: HaCaT; experiment: Induction of apoptosis in human HaCaT cells assessed as change in cellular morphology after irradiation with 9.15 mW/cm'2 light; format: functional, cell-based
[19] = system: HaCaT; experiment: Phototoxicity against human HaCaT cells assessed as surviving fraction at 1.2 uM irradiated with 9.15 mW/cm'2 light for 20 mins by MTT assay; format: functional
[20] = system: HeLa; experiment: Induction of apoptosis in human HeLa cells assessed as intracellular localization at 0.25 uM with 9.15 mW/cm'2 light for; format: functional, cell-based; details: TDE = time-dependent effect
[21] = system: HaCaT; experiment: Induction of apoptosis in human HaCaT cells assessed as change in loss of basophilia after irradiation with 9.15 mW/cm'2 light for 10 mins; format: functional, cell-based
[22] = system: HaCaT; experiment: Phototoxicity against human HaCaT cells assessed as surviving fraction at 0.3 uM irradiated with 9.15 mW/cm'2 light for 15 mins by MTT assay; format: functional
[23] = system: HeLa; experiment: Phototoxicity against human HeLa cells assessed as surviving fraction at 0.3 uM irradiated with 9.15 mW/cm'2 light for 15 mins by MTT assay; format: functional
[24] = system: HeLa; experiment: Phototoxicity against human HeLa cells assessed as surviving fraction at 0.3 uM irradiated with 9.15 mW/cm'2 light for 5 mins by MTT assay; format: functional
[25] = system: HaCaT; experiment: Phototoxicity against human HaCaT cells assessed as surviving fraction at 0.3 uM irradiated with 9.15 mW/cm'2 light for 5 mins by MTT assay; format: functional
[26] = system: HaCaT; experiment: Induction of apoptosis in human HaCaT cells assessed as intracellular localization at 0.3 uM with 9.15 mW/cm'2 light for; format: functional, cell-based; details: TDE = time-dependent effect
[27] = system: HaCaT; experiment: Induction of apoptosis in human HaCaT cells assessed as change in cytoplasmic vacuolization after irradiation with 9.15 mW/cm'2 light for 10 mins; format: functional, cell-based
[28] = system: HeLa; experiment: Phototoxicity against human HeLa cells assessed as surviving fraction at 0.3 uM irradiated with 9.15 mW/cm'2 light for 10 mins by MTT assay; format: functional
[29] = system: HaCaT; experiment: Phototoxicity against human HaCaT cells assessed as surviving fraction at 0.3 uM irradiated with 9.15 mW/cm'2 light for 10 mins by MTT assay; format: functional
[30] = system: HaCaT; experiment: Induction of apoptosis in human HaCaT cells assessed as change in loss of adheshin after irradiation with 9.15 mW/cm'2 light for 10 mins; format: functional, cell-based
[31] = system: HeLa; experiment: Phototoxicity against human HeLa cells assessed as survival at 0.3 uM irradiated with 9.15 mW/cm'2 light for 10 mins by MTT assay
[32] = system: HaCaT; experiment: Phototoxicity against human HaCaT cells assessed as surviving fraction at 0.25 uM irradiated with 9.15 mW/cm'2 light for 5 mins by MTT assay; format: functional
[33] = system: HeLa; experiment: Phototoxicity against human HeLa cells assessed as surviving fraction at 0.25 uM irradiated with 9.15 mW/cm'2 light for 20 mins by MTT assay; format: functional
[34] = system: HeLa; experiment: Phototoxicity against human HeLa cells assessed as surviving fraction at 0.25 uM irradiated with 9.15 mW/cm'2 light for 10 mins by MTT assay; format: functional
[35] = system: HaCaT; experiment: Phototoxicity against human HaCaT cells assessed as surviving fraction at 0.25 uM irradiated with 9.15 mW/cm'2 light for 20 mins by MTT assay; format: functional
[36] = system: HeLa; experiment: Phototoxicity against human HeLa cells assessed as survival at 0.25 uM irradiated with 9.15 mW/cm'2 light for 10 mins by MTT assay
[37] = system: HeLa; experiment: Phototoxicity against human HeLa cells assessed as surviving fraction at 0.25 uM irradiated with 9.15 mW/cm'2 light for 5 mins by MTT assay; format: functional
[38] = Photostability of the compound irradiated with 9.15 mW/cm'2 white light; format: physicochemical
[39] = system: HaCaT; experiment: Phototoxicity against human HaCaT cells assessed as surviving fraction at 0.25 uM irradiated with 9.15 mW/cm'2 light for 10 mins by MTT assay; format: functional
[40] = system: HaCaT; experiment: Induction of apoptosis in human HaCaT cells assessed as intracellular localization at 0.25 uM with 9.15 mW/cm'2 light for; format: functional, cell-based; details: TDE = time-dependent effect

Row | SMILES | Activity [1] | Activity [2] | Activity [4] | Activity [6] | Activity [7] | Activity [9] | Activity [10] | Activity [11] | Activity [12] | Activity [16] | Activity [18] | Activity [20] | other results
1 | COC(=O)C(CO)NC(=O)c1ccc(-c2c3nc(c(-c4cccc(OC)c4)c4ccc([nH]4)c(-c4cccc(OC)c4)c4nc(c(-c5cccc(OC)c5)c5ccc2[nH]5)C=C4)C=C3)cc1 (configuration not stated) | 97.54% | 67.33% | 91.48% | 102.65% | 102.78% | 96.98% | 104.72% | 102.58% | 101.49% | 100.28% | Active | tde | Activity [3]: tde; Activity [5]: Active; Activity [8]: 42.75%; Activity [13]: 0%; Survival [14]: 42.75%; Activity [15]: 0%; Activity [17]: 8%; Activity [19]: 22.54%
2 | COC(=O)C(CC[S+](C)[O-])NC(=O)c1ccc(-c2c3nc(c(-c4cccc(OC)c4)c4ccc([nH]4)c(-c4cccc(OC)c4)c4nc(c(-c5cccc(OC)c5)c5ccc2[nH]5)C=C4)C=C3)cc1 (configuration not stated) | 101.3% | 16.93% | 93.5% | 103.4% | 95.69% | 16.9% | 101.5% | 93.26% | 99.2% | 92.61% |  | tde | Activity [21]: Active; Activity [22]: 28.2%; Activity [23]: 10.93%; Activity [24]: 56.87%; Activity [25]: 76.87%; Activity [26]: tde; Activity [27]: Active; Activity [28]: 14.23%; Activity [29]: 53.02%; Activity [30]: Active; Survival [31]: 53.02%
3 | COC(=O)CNC(=O)c1ccc(-c2c3nc(c(-c4cccc(OC)c4)c4ccc([nH]4)c(-c4cccc(OC)c4)c4nc(c(-c5cccc(OC)c5)c5ccc2[nH]5)C=C4)C=C3)cc1 | 109.91% | 60.42% | 104.89% | 102.19% | 106.97% | 24.3% | 97.96% | 107.31% | 94.98% | 110.38% | Active |  | Activity [32]: 82.69%; Activity [33]: 1.32%; Activity [34]: 1.13%; Activity [35]: 22.11%; Survival [36]: 50.96%; Activity [37]: 3.74%; Stability [38]: Stable; Activity [39]: 50.96%; Activity [40]: tde
